Like-named read-outs stand apart in the source and are kept apart here.
What was measured:
MKN1 cells = experiment: MKN1 CTG proliferation assay (120 h) (gastric cancer, wt amplified); format: cell-based
In short: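 MKN1 gastric cancer cells (200–500 per well, RPMI + 10% FCS) given a logarithmic compound dose series and incubated 120 h. Viability by CellTiter-Glo luminescence as percent of DMSO controls. IC50 by four-parameter non-linear regression.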

CYP3A4 = CYP3A4 (Homo sapiens (Human), UniProt P08684); experiment: Mechanism based inhibition of CYP3A4 assay (MBI 3A4); format: in vitro ADME; settings: hydroxy-midazolam formation after 30 min vs 0 min preincubation, 25 uM, human liver microsomes
In short: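 Human CYP3A4 activity after 30 min vs 0 min preincubation with test compound; incubate then diluted 1:10 and midazolam added for a 15 min main incubation. Quenched with acetonitrile; hydroxy-midazolam quantified by LC/MS-MS and expressed as % of the 0 min preincubation formation.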

[1] = Caco-2 assay (permeability PappAB, PappBA, efflux ratio); format: in vitro ADME; settings: human, Caco-2, 10 μM test compound, pH 7.4; for Papp A→B at 90 min, 10 μM: apical to basolateral; for efflux ratio at 90 min, 10 μM: efflux ratio PappBA/PappAB, read-out: Caco ER
In short: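 Confluent Caco-2 monolayers on filter supports, 0.25% BSA in both donor and receiver buffer; transport measured a-b and b-a. After 25-30 min preincubation at 37 °C, samples at 0, 30, 60, 90 min quantified by HPLC/MS/MS. Papp from receiver amount per time, filter area and initial donor concentration; efflux ratio = PappBA/PappAB.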

[2] = Homo sapiens, MKN-1, assay 3, CTG 120 h, read-out: MKN1 (assay 3) IC50
[3] = Homo sapiens, MKN-1, assay 2, CTG 120 h, read-out: MKN1 (assay 2) IC50
[4] = Homo sapiens, MKN-1, assay 1, CTG 120 h, read-out: MKN1 (assay 1) IC50

Chain of CYP3A4 (P08684 whole entry): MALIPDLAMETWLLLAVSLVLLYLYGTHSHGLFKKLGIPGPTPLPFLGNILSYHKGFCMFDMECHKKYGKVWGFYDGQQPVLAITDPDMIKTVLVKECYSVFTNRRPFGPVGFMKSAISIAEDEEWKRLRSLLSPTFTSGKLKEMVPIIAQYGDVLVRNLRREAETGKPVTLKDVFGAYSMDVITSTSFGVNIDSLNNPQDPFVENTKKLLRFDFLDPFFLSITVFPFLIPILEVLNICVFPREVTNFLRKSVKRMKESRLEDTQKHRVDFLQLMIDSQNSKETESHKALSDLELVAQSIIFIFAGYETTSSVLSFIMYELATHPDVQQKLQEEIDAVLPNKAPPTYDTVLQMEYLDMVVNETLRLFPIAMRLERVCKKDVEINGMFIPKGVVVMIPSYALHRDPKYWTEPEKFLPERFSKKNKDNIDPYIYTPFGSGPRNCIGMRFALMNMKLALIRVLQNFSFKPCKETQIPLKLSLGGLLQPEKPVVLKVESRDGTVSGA

Structure (SMILES): C[C@H](Oc1cc(N2CCNC3(COC3)C2)nc(-c2onc3c2CCC[C@@]32CCCc3sc(N)c(C#N)c32)n1)[C@@H]1CCCN1C [I-4]
- IC50 (MKN1 cells; [2]): 75 nM
- MBI 3A4 (CYP3A4): 64%
- Papp A→B at 90 min, 10 μM [1]: < 4.8 ×10⁻⁶ cm/s

Structure (SMILES): C[C@H](Oc1cc(-c2ccn(C)n2)nc(-c2onc3c2CCC[C@@]32CCCc3sc(N)c(C#N)c32)n1)[C@@H]1CCCN1C [I-21]
- IC50 (MKN1 cells; assay 3, CTG 120 h, read-out: MKN1 (assay 3) IC50): 149 nM
- MBI 3A4 (CYP3A4): 40%

Structure (SMILES): C[C@H](Oc1cc([C@@H]2CCOC2)nc(-c2onc3c2CCC[C@@]32CCCc3sc(N)c(C#N)c32)n1)[C@@H]1CCCN1C [I-22]
- IC50 (MKN1 cells; [2]): 68 nM
- Papp A→B at 90 min, 10 μM [1]: 18 ×10⁻⁶ cm/s
- efflux ratio at 90 min, 10 μM [1]: 1.9

Structure (SMILES): C[C@H](Oc1cc(-c2cnsc2)nc(-c2onc3c2CCC[C@@]32CCCc3sc(N)c(C#N)c32)n1)[C@@H]1CCCN1C [I-27]
- IC50 (MKN1 cells; [2]): 396 nM
- MBI 3A4 (CYP3A4): 50%
- efflux ratio at 90 min, 10 μM [1]: 1.1

Structure (SMILES): Cc1ccc(-c2cc(O[C@@H](C)[C@@H]3CCCN3C)nc(-c3onc4c3CCC[C@@]43CCCc4sc(N)c(C#N)c43)n2)cn1 [I-28]
- IC50 (MKN1 cells; [2]): 1280 nM
- MBI 3A4 (CYP3A4): 77%

Structure (SMILES): C[C@H](Oc1cc(-c2ccn(C3COC3)n2)nc(-c2onc3c2CCC[C@@]32CCCc3sc(N)c(C#N)c32)n1)[C@@H]1CCCN1C [I-34]
- IC50 (MKN1 cells; [2]): 693 nM
- MBI 3A4 (CYP3A4): 67%
- Papp A→B at 90 min, 10 μM [1]: 3.6 ×10⁻⁶ cm/s
- efflux ratio at 90 min, 10 μM [1]: 9.2

Structure (SMILES): C[C@H](Oc1cc(N2CCN(C)C3(CC3)C2)nc(-c2onc3c2CCC[C@@]32CCCc3sc(N)c(C#N)c32)n1)[C@@H]1C[C@@H](F)CN1C [I-39]
- IC50 (MKN1 cells; [3]): 621 nM
- MBI 3A4 (CYP3A4): 37%
- efflux ratio at 90 min, 10 μM [1]: 0.6

Structure (SMILES): C[C@H](Oc1cc(N2CCNC3(CC3)C2)nc(-c2onc3c2CCC[C@@]32CCCc3sc(N)c(C#N)c32)n1)[C@@H]1C[C@@H](F)CN1C [I-45]
- IC50 (MKN1 cells; [3]): 510 nM
- Papp A→B at 90 min, 10 μM [1]: 11 ×10⁻⁶ cm/s
- efflux ratio at 90 min, 10 μM [1]: 3.1

Structure (SMILES): CO[C@H]1CCN(C)[C@@H]1[C@H](C)Oc1cc(N2CCNC3(CC3)C2)nc(-c2onc3c2CCC[C@@]32CCCc3sc(N)c(C#N)c32)n1 [I-49]
- IC50 (MKN1 cells; [3]): 335 nM
- IC50 (MKN1 cells; [2]): 152 nM
- Papp A→B at 90 min, 10 μM [1]: 10 ×10⁻⁶ cm/s
- efflux ratio at 90 min, 10 μM [1]: 2.9

Structure (SMILES): CO[C@@H]1C[C@@H]([C@H](C)Oc2cc(N3CCN(C)C4(CC4)C3)nc(-c3onc4c3CCC[C@@]43CCCc4sc(N)c(C#N)c43)n2)N(C)C1 [I-50]
- IC50 (MKN1 cells; [3]): 785 nM
- IC50 (MKN1 cells; [2]): 627 nM
- efflux ratio at 90 min, 10 μM [1]: 1.7

Structure (SMILES): CO[C@H]1CCN(C)[C@@H]1[C@H](C)Oc1cc(-n2ccc(C(=O)N[C@H]3CCOC3)n2)nc(-c2onc3c2CCC[C@@]32CCCc3sc(N)c(C#N)c32)n1 [I-54]
- IC50 (MKN1 cells; [2]): 26 nM

Structure (SMILES): COCCNC(=O)c1ccn(-c2cc(O[C@@H](C)[C@@H]3[C@@H](OC)CCN3C)nc(-c3onc4c3CCC[C@@]43CCCc4sc(N)c(C#N)c43)n2)n1 [I-55]
- IC50 (MKN1 cells; [2]): 39 nM

Structure (SMILES): C[C@H](Oc1cc(-n2ccc(C(=O)N[C@H]3CCOC3)n2)nc(-c2onc3c2CCC[C@@]32CCCc3sc(N)c(C#N)c32)n1)[C@@H]1CCCN1C [I-57]
- IC50 (MKN1 cells; [2]): 19 nM

Structure (SMILES): COCCNC(=O)c1ccn(-c2cc(O[C@@H](C)[C@@H]3CCCN3C)nc(-c3onc4c3CCC[C@@]43CCCc4sc(N)c(C#N)c43)n2)n1 [I-58]
- IC50 (MKN1 cells; [4]): 25 nM
- IC50 (MKN1 cells; [2]): 17 nM
- Papp A→B at 90 min, 10 μM [1]: 14 ×10⁻⁶ cm/s
- efflux ratio at 90 min, 10 μM [1]: 3.4

Structure (SMILES): C[C@H](NC(=O)c1ccn(-c2cc(O[C@@H](C)[C@@H]3CCCN3C)nc(-c3onc4c3CCC[C@@]43CCCc4sc(N)c(C#N)c43)n2)n1)c1ccccn1 [I-59]
- IC50 (MKN1 cells; [2]): 26 nM

Structure (SMILES): C[C@H](Oc1cc(-n2ccc(C(=O)N(C)C3COC3)n2)nc(-c2onc3c2CCC[C@@]32CCCc3sc(N)c(C#N)c32)n1)[C@@H]1CCCN1C [I-60]
- IC50 (MKN1 cells; [2]): 32 nM

Structure (SMILES): C[C@H](Oc1cc(N2C[C@@H](N(C)C)[C@@H](O)C2)nc(-c2noc3c2CCC[C@@]32CCCc3sc(N)c(C#N)c32)n1)[C@@H]1CCCN1C [II-10]
- IC50 (MKN1 cells; [2]): 1260 nM
- MBI 3A4 (CYP3A4): 80%
- Papp A→B at 90 min, 10 μM [1]: 0.3 ×10⁻⁶ cm/s
- efflux ratio at 90 min, 10 μM [1]: 68

Structure (SMILES): C[C@H](Oc1cc(N2CC[C@H](N3CCCCC3)C2)nc(-c2noc3c2CCC[C@@]32CCCc3sc(N)c(C#N)c32)n1)[C@@H]1CCCN1C [II-12]
- IC50 (MKN1 cells; [2]): 460 nM
- MBI 3A4 (CYP3A4): 78%
- efflux ratio at 90 min, 10 μM [1]: 12.1

Structure (SMILES): C[C@H](Oc1cc(N2C[C@H](C)NC3(CC3)C2)nc(-c2noc3c2CCC[C@@]32CCCc3sc(N)c(C#N)c32)n1)[C@@H]1C[C@@H](F)CN1C [II-18]
- IC50 (MKN1 cells; [3]): 279 nM

Structure (SMILES): C[C@H](Oc1cc(-n2ccc(C(=O)N3CCCC3)n2)nc(-c2noc3c2CCC[C@@]32CCCc3sc(N)c(C#N)c32)n1)[C@@H]1CCCN1C [II-19]
- IC50 (MKN1 cells; [2]): 47 nM

Structure (SMILES): CNC(=O)c1ccn(-c2cc(O[C@@H](C)[C@@H]3CCCN3C)nc(-c3noc4c3CCC[C@@]43CCCc4sc(N)c(C#N)c43)n2)n1 [II-20]
- IC50 (MKN1 cells; [4]): 24 nM
- MBI 3A4 (CYP3A4): 63%
- Papp A→B at 90 min, 10 μM [1]: 11.1 ×10⁻⁶ cm/s
- efflux ratio at 90 min, 10 μM [1]: 3.3

Structure (SMILES): C[C@H](Oc1cc(-n2ccc(C(N)=O)n2)nc(-c2noc3c2CCC[C@@]32CCCc3sc(N)c(C#N)c32)n1)[C@@H]1CCCN1C [II-21]
- IC50 (MKN1 cells; [4]): 20 nM
- IC50 (MKN1 cells; [3]): 27 nM
- IC50 (MKN1 cells; [2]): 24 nM
- MBI 3A4 (CYP3A4): 77%
- Papp A→B at 90 min, 10 μM [1]: 3.5 ×10⁻⁶ cm/s
- efflux ratio at 90 min, 10 μM [1]: 6.6

Structure (SMILES): CCOC(=O)c1ccn(-c2cc(O[C@@H](C)[C@@H]3CCCN3C)nc(-c3noc4c3CCC[C@@]43CCCc4sc(N)c(C#N)c43)n2)n1 [II-23]
- IC50 (MKN1 cells; [2]): 172 nM

Structure (SMILES): C[C@H](Oc1cc(-c2ccn(C)n2)nc(-c2noc3c2CCC[C@@]32CCCc3sc(N)c(C#N)c32)n1)[C@@H]1C[C@@H](F)CN1C [II-27]
- IC50 (MKN1 cells; [2]): 116 nM
- MBI 3A4 (CYP3A4): 71%
- Papp A→B at 90 min, 10 μM [1]: 11 ×10⁻⁶ cm/s
- efflux ratio at 90 min, 10 μM [1]: 0.7

Structure (SMILES): C[C@H](Oc1cc(N2CCNC3(COC3)C2)nc(-c2noc3c2CCC[C@@]32CCCc3sc(N)c(C#N)c32)n1)[C@@H]1CCCN1C [II-31]
- IC50 (MKN1 cells; [2]): 30 nM
- MBI 3A4 (CYP3A4): 65%
- Papp A→B at 90 min, 10 μM [1]: < 0.1 ×10⁻⁶ cm/s

Structure (SMILES): C[C@H](Oc1cc(N2CC3CCC(C2)N3)nc(-c2noc3c2CCC[C@@]32CCCc3sc(N)c(C#N)c32)n1)[C@@H]1CCCN1C [II-34]
- IC50 (MKN1 cells; [2]): 453 nM
- MBI 3A4 (CYP3A4): 83%
- Papp A→B at 90 min, 10 μM [1]: 0.4 ×10⁻⁶ cm/s
- efflux ratio at 90 min, 10 μM [1]: 37.8

Structure (SMILES): C[C@H](Oc1cc(N2CCNCC2)nc(-c2noc3c2CCC[C@@]32CCCc3sc(N)c(C#N)c32)n1)[C@@H]1CCCN1C [II-45]
- IC50 (MKN1 cells; [2]): 1480 nM

Structure (SMILES): [2H]C([2H])([2H])N1C[C@H](F)C[C@H]1[C@H](C)Oc1cc(N2CCNC3(CC3)C2)nc(-c2noc3c2CCC[C@@]32CCCc3sc(N)c(C#N)c32)n1 [II-208]
- IC50 (MKN1 cells; [3]): 451 nM
- IC50 (MKN1 cells; [2]): 245 nM
- efflux ratio at 90 min, 10 μM [1]: 1.8

Structure (SMILES): [2H]C([2H])([2H])N1C[C@H](F)C[C@H]1[C@H](C)Oc1cc(N2CCN(C)C3(CC3)C2)nc(-c2noc3c2CCC[C@@]32CCCc3sc(N)c(C#N)c32)n1 [II-209]
- IC50 (MKN1 cells; [2]): 670 nM
- efflux ratio at 90 min, 10 μM [1]: 0.8
